Patent US20030055046A1, “Novel pyrido cyclohexenyl phenyl carboxamides tocolytic oxytocin receptor antagonists” (Wyeth, priority 2001, published 2003)
Structures can show the parent of a compound that is named as a salt.

Biological target: T1, human vasopressin V1a receptor subtype (Homo sapiens, UniProt P37288)
T1 construct: host or cells: CHO cells, stably transfected (pZeoSV vector for the Thibonnier cells)
Assay: Vasopressin binding in CHO cell membranes expressing human vasopressin V1a subtype receptors
Conditions: [3H]Manning ligand; for IC50: value in parentheses
Description: Vasopressin Binding in Chinese Hamster Ovary Cell Membranes Expressing Human Vasopressin V1a Subtype Receptors
Chinese hamster ovary cells (CHO cells) stably transfected with the human vasopressin V1a subtype receptors were either obtained from Biosignal Inc., 1744 rue Williams, Montreal, Quebec, Canada or obtained from M. Thibonnier, Case Western Reserve University School of Medicine, Cleveland, Ohio.
A. Passaging and Amplification of Cells:
CHO cells transfected with the human vasopressin V1a subtype receptors obtained from M. Thibonnier (pZeoSV vector) are allowed to grow to confluency (approx. >90%) in T-150 flasks under sterile conditions, in a cell culture medium consisting of F-12 Nutrient Mixture (HAM) with L-glutamine (Gibco Cat.# 11765-054) containing 15 mM HEPES (Gibco Cat.# 15630-080), 1% antibiotic/antimycotic (add 5 mL 100×, Gibco Cat.# 15240-062 per 500 mL F-12), 250 μg/mL Zeocin (add 1.25 mL of 100 mg/mL Invitrogen R-250-01 per 500 mL F-12) and 10% Fetal Bovine Serum (Qualified, heat inactivated, Gibco Cat.# 16140-063). The medium is removed by aspiration and the cells are washed with 10 mL of Hank's Balanced Salt solution (Gibco Cat.# 14175-095). The salt solution is removed by aspiration and the cells are trypsinized with 5 mL of trypsin-EDTA (0.05% trypsin, 0.53 mM EDTA-4Na, Gibco Cat.# 25300-070) for 1 min. The trypsin is removed by aspiration and the cells dislodged by tapping. Cell Culture medium (eg, 30 mL for 1:30 split) is immediately added and mixed well to inactivate trypsin. 1 mL of detached cells is added to new culture flasks containing fresh cell culture medium (eg, into 25 mL per T-150 flask), and mixed gently. The cells are incubated at 37° C. in 5% CO2. The medium is changed at 3 to 4 days interval (or as appropriate). The cells grow to confluency (approx. >75%-95%) within 7-8 days. All steps are done under sterile conditions.
The cells are washed twice gently with Hank's Balanced Salt solution (e.g,. use 10 mL per T-150 flask). The excess is removed and the cells are bathed for 15-30 min. in an enzyme-free Cell Dissociation Buffer (e.g. use 8 mL Hank's Based, Gibco Cat.# 13150-016 per T-150 flask) until the cells are loosened. The contents are transferred to centrifuge tubes (50 mL) kept an ice bath. All subsequent steps are done at 4° C. The tubes are centrifuged at 300×g for 15 min (1380 rpm on SORVAL, Model RT6000D, using the rotor for 50 mL tubes). The supernatant is discarded and the cells suspended in homogeneizing buffer (10 mM Tris-HCl containing 0.25 M sucrose and 1 mM EDTA, pH 7.4) ensuring that the volume of the buffer is about ten times the volume of the cell pellet. The cells are pooled into a centrifuge tube (50 mL) and homogenized with Polytron at setting 6 for 10 sec. The homogenate is transferred into a Potter-Elvjehm homogenizer and homogenized with 3 strokes. The homogenate is centrifuged at 1500×g for 10 min at 4° C. (3100 rpm using SORVAL, model RT6000D, using the rotor for 50 mL tubes). The pellet is discarded. The supernatant is centrifuged at 100,000×g for 60 min. at 4° C. (Beckman L8-80M ultracentrifuge; spin at 37,500 rpm with rotor type 70 Ti for 50 mL tubes; 38,000 rpm with type […] for 15 mL tubes; or 35,800 rpm with rotor type 45Ti). The supernatant is discarded and the pellet suspended in 3 to 4 mL of Tris buffer (50 mM TRIS-HCl, pH 7.4). The protein content is estimated by the Bradford or Lowry method. The volume of the membrane suspension is adjusted with the membrane buffer (50 mM Tris-HCl containing 0.1% BSA and 0.1 mM PMSF) to give 3.0 mg/mL (or as appropriate) of protein. The membranes are aliquoted and stored at −70° C.
C. Radioligand Binding Assay: […]

T1 sequence (P37288 whole entry): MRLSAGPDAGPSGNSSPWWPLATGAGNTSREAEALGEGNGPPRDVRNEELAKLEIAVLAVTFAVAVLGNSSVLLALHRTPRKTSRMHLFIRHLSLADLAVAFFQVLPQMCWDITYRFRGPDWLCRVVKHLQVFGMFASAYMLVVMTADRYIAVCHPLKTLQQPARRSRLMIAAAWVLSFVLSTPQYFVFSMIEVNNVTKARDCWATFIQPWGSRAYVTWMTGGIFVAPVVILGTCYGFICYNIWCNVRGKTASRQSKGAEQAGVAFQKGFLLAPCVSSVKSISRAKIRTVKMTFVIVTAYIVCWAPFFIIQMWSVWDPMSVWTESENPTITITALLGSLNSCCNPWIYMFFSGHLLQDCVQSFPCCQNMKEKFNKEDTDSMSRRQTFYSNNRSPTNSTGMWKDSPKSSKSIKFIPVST

SMILES	V1a % inhibition @ 100 nM [%]	IC50 [nM]
Cc1cc(C(=O)N2Cc3ccc(C(=O)NCc4ccncc4)n3Cc3ccccc32)ccc1C1=CCCCC1 [Example 10, 10-[4-(1-Cyclohex-1-en-1-yl)-3-methylbenzoyl]-N-(4-pyridinylmethyl)-10,11-dihydro-5H-pyrrolo[2,1-c][1,4]benzodiazepine-3-carboxamide]	13	–
Cc1cc(C(=O)N2Cc3ccc(C(=O)NCCc4ccccn4)n3Cc3ccccc32)ccc1C1=CCCCC1 [Example 7, 10-[4-(1-Cyclohex-1-en-1-yl)-3-methylbenzoyl]-N-[2-(2-pyridinyl)ethyl]-10,11-pyrrolo[2,1-c][1,4]benzodiazepine-3-carboxamide]	13	–
Cc1cc(C(=O)N2Cc3ccc(C(=O)N(C)CCc4ccccn4)n3Cc3ccccc32)ccc1C1=CCCCC1 [Example 8, 10-[4-(1-Cyclohex-1-en-1-yl)-3-methylbenzoyl]-N-methyl-N-[2-(2-pyridinyl)ethyl]-10,11-dihydro-5H-pyrrolo[2,1-c][1 ,4]benzodiazepine-3-carboxamide]	43	–
CC1=C(c2ccc(C(=O)N3Cc4ccc(C(=O)N(C)Cc5cccnc5)n4Cc4ccccc43)cc2C)CCC[C@H]1O [Example 3, 10-[4-((3R)-3-Hydroxy-2-methyl-cyclohex-1-en-1-yl)-3-methyl-benzoyl]-10,11-dihydro-5H-pyrrolo[2,1-c][1,4]benzodiazepine-3-carboxylic acid methyl-pyridin-3-yl methyl-amide]	41	–
Cc1cc(C(=O)N2Cc3ccc(C(=O)N4CCN(c5ccccn5)CC4)n3Cc3ccccc32)ccc1C1=CCCCC1 [Example 9, {10-[4-(1-Cyclohex-1-en-1-yl)-3-methylbenzoyl]-10,11-dihydro-5H-pyrrolo[2,1-c][1,4]benzodiazepin-3-yl}[4-(2-pyridinyl)-1-piperazinyl]methanone]	5	–
Cc1cc(C(=O)N2Cc3ccc(C(=O)NCc4ccccn4)n3Cc3ccccc32)ccc1C1=CCCCC1 [Example 5, 10-[4-(1-Cyclohex-1-en-1-yl)-3-methylbenzoyl]-N-(2-pyridinylmethyl)-10,11-dihydro-5H-pyrrolo[2,1-c][1,4]benzodiazepine-3-carboxamide]	18	–
CC1=C(c2ccc(C(=O)N3Cc4ccc(C(=O)N(C)Cc5cccnc5)n4Cc4ccccc43)cc2C)CCC[C@H]1O.O=C(O)C(O)C(O)C(=O)O [Example 4, 10-[4-((3R)-3-Hydroxy-2-methyl-cyclohex-1-en-1-yl)-3-methyl-benzoyl]-10,11-dihydro-5H-pyrrolo[2,1-c][1,4]benzodiazepine-3-carboxylic acid methyl-pyridin-3-yl methyl-amide L-(+)-tartaric acid salt]	61	–
Cc1cc(C(=O)N2Cc3ccc(C(=O)N4CCN(c5ccncc5)CC4)n3Cc3ccccc32)ccc1C1=CCCCC1 [Example 12, {10-[4-(1-Cyclohex-1-en-1-yl)-3-methylbenzoyl]-10,11-dihydro-5H-pyrrolo[2,1--c][1,4]benzodiazepin-3-yl}[4-(4-pyridinyl)-1-piperazinyl]methanone]	73	–

Continued, values first:

V1a % inhibition @ 100 nM [%]	IC50 [nM]	SMILES
6	–	Cc1cc(C(=O)N2Cc3ccc(C(=O)NCc4cccnc4)n3Cc3ccccc32)ccc1C1=CCCCC1 [Example 6, 10-[4-(1-Cyclohex-1-en-1-yl)-3-methylbenzoyl]-N-(3-pyridinylmethyl)-10,11-dihydro-5H-pyrrolo[2,1-c][1 ,4]benzodiazepine-3-carboxamide]
–	1090	COc1cc(C2=CCCCC2)c(Cl)cc1C(=O)N1Cc2ccc(C(=O)N(C)Cc3cccnc3)n2Cc2ccccc21 [Example 1, 10-(5-Chloro-4-cyclohex-1-en-1-yl-2-me3thoxybenzoyl)-N-methyl-N-(pyridin-3-ylmethyl)-10,11-dihydro-5H-pyrrolo [2,1-c][1,4]benzodiazepine-3-carboxamide]
–	1320	COc1cc(C2=CCCCC2)c(Cl)cc1C(=O)N1Cc2ccc(C(=O)N(C)Cc3cccnc3)n2Cc2ccccc21 [Example 2, 10-(5-Chloro-4-cyclohex-1-en-1-yl-2-methoxybenzoyl)-N-methyl-N-(pyridin-3-ylmethyl)-10,11-dihydro-5H-pyrrolo[2,1-c][1,4]benzodiazepine-3-carboxamide L-(+)-tartaric acid salt hemihydrate]
54	–	Cc1cc(C(=O)N2Cc3ccc(C(=O)N(C)Cc4cccnc4)n3Cc3ccccc32)ccc1C1=CCCCC1 [Example 11, 10-[4-(1-Cyclohex-1-en-1-yl)-3-methylbenzoyl]-N-methyl-N-(3-pyridinylmethyl)-10,11-dihydro-5H-pyrrolo[2,1-c][1,4]benzodiazepine-3-carboxamide]
51	–	Cc1cc(C(=O)N2Cc3ccc(C(=O)N(C)CCc4ccncc4)n3Cc3ccccc32)ccc1C1=CCCCC1 [Example 13, 10-[4-(1-Cyclohex-1-en-1-yl)-3-methylbenzoyl]-N-methyl-N-[2-(4-pyridinyl)ethyl]-10,11-dihydro-5H-pyrrolo[2,1-c][1,4]benzodiazepine-3-carboxamide]
